“And” between values parts separate entries of the source, which are not always exact repeats. Equal values may be shown once.

Assay in all cases: cell-based
The target of one assay is hNav1.7 (Homo sapiens, UniProt Q15858). The note with it: IonWorks Quattro; read-out: IC50 Nav1.7.
The target in a further assay is hNav1.4 (Homo sapiens, UniProt P35499). The following applies: IonWorks Quattro; read-out: IC50 Nav1.4. Background: Patch clamp records ionic current or voltage across a cell membrane.
hNav1.4, sequence (P35499 whole entry): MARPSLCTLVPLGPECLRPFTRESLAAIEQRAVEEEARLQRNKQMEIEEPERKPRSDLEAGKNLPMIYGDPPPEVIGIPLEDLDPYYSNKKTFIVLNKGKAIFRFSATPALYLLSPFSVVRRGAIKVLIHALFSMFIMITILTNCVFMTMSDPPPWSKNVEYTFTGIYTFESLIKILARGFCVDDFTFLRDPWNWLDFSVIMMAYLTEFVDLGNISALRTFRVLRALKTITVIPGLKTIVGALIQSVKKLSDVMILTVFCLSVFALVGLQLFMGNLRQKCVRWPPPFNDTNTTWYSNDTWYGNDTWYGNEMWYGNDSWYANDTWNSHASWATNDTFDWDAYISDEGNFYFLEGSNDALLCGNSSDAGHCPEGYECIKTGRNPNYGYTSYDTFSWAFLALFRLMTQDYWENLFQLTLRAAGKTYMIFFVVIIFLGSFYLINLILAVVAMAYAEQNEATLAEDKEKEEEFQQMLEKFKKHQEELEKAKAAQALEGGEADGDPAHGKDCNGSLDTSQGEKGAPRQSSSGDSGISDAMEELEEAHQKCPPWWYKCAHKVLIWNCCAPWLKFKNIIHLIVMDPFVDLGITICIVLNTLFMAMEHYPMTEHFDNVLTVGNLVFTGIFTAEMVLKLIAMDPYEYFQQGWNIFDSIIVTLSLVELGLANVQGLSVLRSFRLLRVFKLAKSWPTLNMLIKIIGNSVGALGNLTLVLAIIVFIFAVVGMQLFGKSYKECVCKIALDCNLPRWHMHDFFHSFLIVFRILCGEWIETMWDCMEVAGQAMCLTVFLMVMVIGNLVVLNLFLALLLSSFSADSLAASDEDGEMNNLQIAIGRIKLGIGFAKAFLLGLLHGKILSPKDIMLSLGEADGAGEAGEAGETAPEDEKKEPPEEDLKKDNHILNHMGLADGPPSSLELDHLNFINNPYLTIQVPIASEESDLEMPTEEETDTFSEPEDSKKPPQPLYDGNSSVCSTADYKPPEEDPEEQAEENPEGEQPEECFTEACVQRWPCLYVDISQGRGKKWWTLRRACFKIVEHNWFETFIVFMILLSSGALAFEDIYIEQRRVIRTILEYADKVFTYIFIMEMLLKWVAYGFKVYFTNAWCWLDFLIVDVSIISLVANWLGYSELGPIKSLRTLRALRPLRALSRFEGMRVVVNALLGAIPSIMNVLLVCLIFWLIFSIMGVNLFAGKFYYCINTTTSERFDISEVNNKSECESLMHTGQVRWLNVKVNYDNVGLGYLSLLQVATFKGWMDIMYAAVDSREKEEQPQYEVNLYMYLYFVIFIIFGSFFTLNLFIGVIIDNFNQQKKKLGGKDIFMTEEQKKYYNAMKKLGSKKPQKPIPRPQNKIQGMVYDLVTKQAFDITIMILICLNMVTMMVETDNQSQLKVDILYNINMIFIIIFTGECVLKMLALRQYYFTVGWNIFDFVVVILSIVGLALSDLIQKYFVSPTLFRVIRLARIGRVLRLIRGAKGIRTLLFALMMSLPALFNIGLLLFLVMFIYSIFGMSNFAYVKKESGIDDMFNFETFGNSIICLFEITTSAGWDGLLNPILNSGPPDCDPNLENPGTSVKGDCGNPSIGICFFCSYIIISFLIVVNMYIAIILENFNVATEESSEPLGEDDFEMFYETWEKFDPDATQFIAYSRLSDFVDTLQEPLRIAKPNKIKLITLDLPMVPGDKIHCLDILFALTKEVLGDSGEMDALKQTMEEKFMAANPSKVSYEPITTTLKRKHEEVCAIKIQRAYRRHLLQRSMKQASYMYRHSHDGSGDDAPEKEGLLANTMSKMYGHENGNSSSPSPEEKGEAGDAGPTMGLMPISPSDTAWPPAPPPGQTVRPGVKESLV
A further assay concerns the target hNav1.3 (Homo sapiens, UniProt Q9NY46). The note with it: IonWorks Quattro; read-out: IC50 Nav1.3.
The next assay addresses hNav1.5 (Homo sapiens, UniProt Q14524). The note with it: IonWorks Quattro; read-out: IC50 Nav1.5.

hNav1.7, sequence (Q15858 whole entry): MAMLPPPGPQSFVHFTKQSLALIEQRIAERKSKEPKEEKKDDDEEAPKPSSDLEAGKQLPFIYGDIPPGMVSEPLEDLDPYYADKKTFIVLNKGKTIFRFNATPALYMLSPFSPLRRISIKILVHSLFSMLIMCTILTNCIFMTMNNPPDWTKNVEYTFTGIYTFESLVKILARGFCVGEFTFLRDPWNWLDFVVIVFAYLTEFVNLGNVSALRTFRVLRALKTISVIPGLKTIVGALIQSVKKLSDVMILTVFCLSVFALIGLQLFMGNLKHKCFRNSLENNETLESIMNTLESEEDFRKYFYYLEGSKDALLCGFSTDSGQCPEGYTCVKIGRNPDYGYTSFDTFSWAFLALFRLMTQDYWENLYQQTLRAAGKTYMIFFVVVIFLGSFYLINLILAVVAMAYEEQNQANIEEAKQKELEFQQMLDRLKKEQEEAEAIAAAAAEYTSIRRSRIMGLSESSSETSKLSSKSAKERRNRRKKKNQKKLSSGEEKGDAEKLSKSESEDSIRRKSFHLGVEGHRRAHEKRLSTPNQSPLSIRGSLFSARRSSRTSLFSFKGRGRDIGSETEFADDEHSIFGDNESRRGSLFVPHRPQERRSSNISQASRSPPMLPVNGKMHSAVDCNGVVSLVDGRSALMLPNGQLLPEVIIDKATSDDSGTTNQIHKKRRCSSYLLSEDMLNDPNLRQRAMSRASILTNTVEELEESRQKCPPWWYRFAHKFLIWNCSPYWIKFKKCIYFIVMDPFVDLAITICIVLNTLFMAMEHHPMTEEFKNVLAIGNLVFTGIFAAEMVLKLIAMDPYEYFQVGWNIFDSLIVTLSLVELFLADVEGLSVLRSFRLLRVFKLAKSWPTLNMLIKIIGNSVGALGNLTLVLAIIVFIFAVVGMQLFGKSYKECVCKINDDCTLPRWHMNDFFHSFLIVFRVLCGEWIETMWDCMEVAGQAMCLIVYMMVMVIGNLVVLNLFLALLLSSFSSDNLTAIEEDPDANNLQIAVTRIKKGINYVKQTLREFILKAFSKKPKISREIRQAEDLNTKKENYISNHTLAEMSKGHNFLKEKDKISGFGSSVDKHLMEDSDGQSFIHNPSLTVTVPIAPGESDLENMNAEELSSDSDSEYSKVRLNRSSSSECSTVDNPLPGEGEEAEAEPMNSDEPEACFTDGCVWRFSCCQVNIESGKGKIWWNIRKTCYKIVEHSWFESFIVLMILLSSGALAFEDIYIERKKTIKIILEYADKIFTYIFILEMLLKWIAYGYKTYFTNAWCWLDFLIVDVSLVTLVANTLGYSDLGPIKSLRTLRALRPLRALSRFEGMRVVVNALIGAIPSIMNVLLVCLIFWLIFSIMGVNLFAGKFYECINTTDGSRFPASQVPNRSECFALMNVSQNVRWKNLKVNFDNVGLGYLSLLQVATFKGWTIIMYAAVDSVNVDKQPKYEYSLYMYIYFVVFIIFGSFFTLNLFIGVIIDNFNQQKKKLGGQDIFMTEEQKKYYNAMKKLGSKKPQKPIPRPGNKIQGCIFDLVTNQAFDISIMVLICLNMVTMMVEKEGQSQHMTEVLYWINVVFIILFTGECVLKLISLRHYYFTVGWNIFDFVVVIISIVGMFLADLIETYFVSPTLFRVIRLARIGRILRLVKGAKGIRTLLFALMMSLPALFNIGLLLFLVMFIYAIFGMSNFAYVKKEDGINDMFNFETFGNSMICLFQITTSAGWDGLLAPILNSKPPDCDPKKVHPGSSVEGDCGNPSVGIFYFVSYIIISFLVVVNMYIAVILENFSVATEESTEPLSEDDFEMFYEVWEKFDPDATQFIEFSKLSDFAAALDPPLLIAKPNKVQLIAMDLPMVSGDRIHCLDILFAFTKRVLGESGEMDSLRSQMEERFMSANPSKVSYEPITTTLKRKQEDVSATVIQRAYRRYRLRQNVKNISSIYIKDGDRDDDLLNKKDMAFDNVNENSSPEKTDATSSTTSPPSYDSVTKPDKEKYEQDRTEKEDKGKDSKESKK

What is called IC50 is the concentration at which inhibition is half-maximal. Consider `CCC[C@@H]1NC(=O)[C@H](CC(C)C)NC(=O)[C@H](CCCCN)NC(=O)[C@@H]2CSSC[C@@H]3NC(=O)[C@H]([C@@H](C)O)NC(=O)[C@H](Cc4c[nH]c5ccccc45)NC(=O)[C@H](CCSC)NC(=O)[C@H](Cc4c[nH]c5ccccc45)NC(=O)[C@H](CCCCN)NC(=O)[C@H](CCC(N)=O)NC(=O)[C@@H](NC(=O)[C@@H](N)Cc4ccc(O)cc4)CSSC[C@H](NC(=O)[C@H](CSSC[C@@H](C(=O)N[C@@H](CCCNC(=N)N)C(=O)N[C@@H](CCCCN)C(=O)N[C@@H](Cc4ccc(O)cc4)C(=O)N[C@H](C(N)=O)[C@@H](C)CC)NC1=O)NC(=O)[C@H](C)NC(=O)[C@H](CCCNC(=N)N)NC(=O)[C@H](CCCCN)NC(=O)[C@H](CO)NC(=O)[C@H](CC(=O)O)NC3=O)C(=O)N[C@@H](CCC(=O)O)C(=O)NCC(=O)N[C@@H](CC(C)C)C(=O)N[C@@H](CCC(=O)O)C(=O)N2` [compound 226], for which the IC50 on hNav1.7, on hNav1.4, on hNav1.3 and at hNav1.5 was over 5 µM each time.
Take `CC[C@H](C)[C@H](NC(=O)[C@H](Cc1ccc(O)cc1)NC(=O)[C@H](CCCCN)NC(=O)[C@H](CCCNC(=N)N)NC(=O)[C@@H]1CSSC[C@@H]2NC(=O)[C@H](C)NC(=O)[C@H](CCCNC(=N)N)NC(=O)[C@H](CCCCN)NC(=O)[C@H](CO)NC(=O)[C@H](CC(=O)O)NC(=O)[C@@H]3CSSC[C@H](NC(=O)[C@H](CCC(=O)O)NC(=O)[C@H](CC(C)C)NC(=O)CNC(=O)[C@H](CCC(=O)O)NC(=O)[C@H](CSSC[C@H](NC(=O)[C@@H](N)Cc4ccc(O)cc4)C(=O)N[C@@H](CCC(N)=O)C(=O)N[C@@H](CCCCN)C(=O)N[C@@H](Cc4c[nH]c5ccccc45)C(=O)N[C@@H](CCSC)C(=O)N[C@@H](Cc4c[nH]c5ccccc45)C(=O)N[C@@H]([C@@H](C)O)C(=O)N3)NC2=O)C(=O)N[C@@H](CCCCN)C(=O)N[C@@H](CC(C)C)C(=O)N[C@@H](CCCCN)C(=O)N1)C(N)=O` [compound 228]: the IC50 on hNav1.7 is 2.7 µM; on hNav1.4 it was over 5 µM; on hNav1.3 it was over 5 µM; on hNav1.5, over 5 µM.
With `CC[C@H](C)[C@H](NC(=O)[C@H](Cc1ccc(O)cc1)NC(=O)[C@H](CCCCN)NC(=O)[C@H](CCCNC(=N)N)NC(=O)[C@@H]1CSSC[C@@H]2NC(=O)[C@H](C)NC(=O)[C@H](CCCNC(=N)N)NC(=O)[C@H](CCCCN)NC(=O)[C@H](CO)NC(=O)[C@H](CC(=O)O)NC(=O)[C@@H]3CSSC[C@H](NC(=O)[C@H](CCC(=O)O)NC(=O)[C@H](CC(C)C)NC(=O)CNC(=O)[C@H](CCC(=O)O)NC(=O)[C@H](CSSC[C@H](NC(=O)[C@@H](N)Cc4ccc(O)cc4)C(=O)N[C@@H](CCC(N)=O)C(=O)N[C@@H](CCCCN)C(=O)N[C@@H](Cc4c[nH]c5ccccc45)C(=O)N[C@@H](CCSC)C(=O)N[C@@H](Cc4c[nH]c5ccccc45)C(=O)N[C@@H]([C@@H](C)O)C(=O)N3)NC2=O)C(=O)N[C@@H](CCCCN)C(=O)N[C@@H](CC(C)C)C(=O)N[C@@H](CC(N)=O)C(=O)N1)C(N)=O` [compound 229], the concentration for half-maximal inhibition (IC50) on hNav1.7, on hNav1.4, on hNav1.3 and on hNav1.5 was over 5 µM in each case.
In the case of `CSCC[C@@H]1NC(=O)[C@H](Cc2c[nH]c3ccccc23)NC(=O)[C@H](CCCCN)NC(=O)[C@H](CCC(N)=O)NC(=O)[C@@H](NC(=O)[C@@H](N)Cc2ccc(O)cc2)CSSC[C@@H]2NC(=O)[C@@H]3CSSC[C@@H](C(=O)N[C@@H](CCCNC(=N)N)C(=O)N[C@@H](CCCCN)C(=O)N[C@@H](Cc4ccc(O)cc4)C(=O)N[C@@H](CCCNC(N)=O)C(N)=O)NC(=O)[C@H](Cc4c[nH]c5ccccc45)NC(=O)[C@H](CC(C)C)NC(=O)[C@H](CCCCN)NC(=O)[C@H](CSSC[C@H](NC(=O)[C@H]([C@@H](C)O)NC(=O)[C@H](Cc4c[nH]c5ccccc45)NC1=O)C(=O)N[C@@H](CC(=O)O)C(=O)N[C@@H](CO)C(=O)N[C@@H](CCCCN)C(=O)N[C@@H](CCCNC(=N)N)C(=O)N[C@@H](C)C(=O)N3)NC(=O)[C@H](CCC(=O)O)NC(=O)[C@H](CC(C)C)NC(=O)CNC(=O)[C@H](CCC(=O)O)NC2=O` [compound 241], the IC50 on hNav1.7 is 1.2 µM; on hNav1.4, over 5 µM; on hNav1.3 it was over 5 µM; on hNav1.5 it was over 5 µM.
Take `CSCC[C@@H]1NC(=O)[C@H](Cc2c[nH]c3ccccc23)NC(=O)[C@H](CCCCN)NC(=O)[C@H](CCC(N)=O)NC(=O)[C@@H](NC(=O)[C@@H](N)Cc2ccc(O)cc2)CSSC[C@@H]2NC(=O)[C@@H]3CSSC[C@@H](C(=O)N[C@@H](CCCNC(=N)N)C(=O)N[C@@H](CCCCN)C(=O)N[C@@H](Cc4ccc(O)cc4)C(=O)N[C@@H](CCCCN)C(N)=O)NC(=O)[C@H](Cc4c[nH]c5ccccc45)NC(=O)[C@H](CC(C)C)NC(=O)[C@H](CCCCN)NC(=O)[C@H](CSSC[C@H](NC(=O)[C@H]([C@@H](C)O)NC(=O)[C@H](Cc4c[nH]c5ccccc45)NC1=O)C(=O)N[C@@H](CC(=O)O)C(=O)N[C@@H](CO)C(=O)N[C@@H](CCCCN)C(=O)N[C@@H](CCCNC(=N)N)C(=O)N[C@@H](C)C(=O)N3)NC(=O)[C@H](CCC(=O)O)NC(=O)[C@H](CC(C)C)NC(=O)CNC(=O)[C@H](CCC(=O)O)NC2=O` [compound 242]: the IC50 on hNav1.7 is 0.45 µM and 0.63 µM; on hNav1.4 it was over 5 µM; on hNav1.3, over 5 µM; at hNav1.5, over 5 µM.
`CSCC[C@@H]1NC(=O)[C@H](Cc2c[nH]c3ccccc23)NC(=O)[C@H](CCCCN)NC(=O)[C@H](CCC(N)=O)NC(=O)[C@@H](NC(=O)[C@@H](N)Cc2ccc(O)cc2)CSSC[C@@H]2NC(=O)[C@@H]3CSSC[C@@H](C(=O)N[C@@H](CCCNC(=N)N)C(=O)N[C@@H](CCCCN)C(=O)N[C@@H](Cc4ccc(O)cc4)C(=O)N[C@@H](CC(N)=O)C(N)=O)NC(=O)[C@H](Cc4c[nH]c5ccccc45)NC(=O)[C@H](CC(C)C)NC(=O)[C@H](CCCCN)NC(=O)[C@H](CSSC[C@H](NC(=O)[C@H]([C@@H](C)O)NC(=O)[C@H](Cc4c[nH]c5ccccc45)NC1=O)C(=O)N[C@@H](CC(=O)O)C(=O)N[C@@H](CO)C(=O)N[C@@H](CCCCN)C(=O)N[C@@H](CCCNC(=N)N)C(=O)N[C@@H](C)C(=O)N3)NC(=O)[C@H](CCC(=O)O)NC(=O)[C@H](CC(C)C)NC(=O)CNC(=O)[C@H](CCC(=O)O)NC2=O` [compound 243]: the IC50 at hNav1.7 was 0.52 µM; on hNav1.4, over 5 µM; at hNav1.3, over 5 µM; on hNav1.5 it was over 5 µM.
On to `CSCC[C@@H]1NC(=O)[C@H](Cc2c[nH]c3ccccc23)NC(=O)[C@H](CCCCN)NC(=O)[C@H](CCC(N)=O)NC(=O)[C@@H](NC(=O)[C@@H](N)Cc2ccc(O)cc2)CSSC[C@@H]2NC(=O)[C@@H]3CSSC[C@@H](C(=O)N[C@@H](CCCNC(=N)N)C(=O)N[C@@H](CCCCN)C(=O)N[C@@H](Cc4ccc(O)cc4)C(=O)N[C@@H](CO)C(N)=O)NC(=O)[C@H](Cc4c[nH]c5ccccc45)NC(=O)[C@H](CC(C)C)NC(=O)[C@H](CCCCN)NC(=O)[C@H](CSSC[C@H](NC(=O)[C@H]([C@@H](C)O)NC(=O)[C@H](Cc4c[nH]c5ccccc45)NC1=O)C(=O)N[C@@H](CC(=O)O)C(=O)N[C@@H](CO)C(=O)N[C@@H](CCCCN)C(=O)N[C@@H](CCCNC(=N)N)C(=O)N[C@@H](C)C(=O)N3)NC(=O)[C@H](CCC(=O)O)NC(=O)[C@H](CC(C)C)NC(=O)CNC(=O)[C@H](CCC(=O)O)NC2=O` [compound 244], for which the IC50 at hNav1.7 is 0.34 µM; at hNav1.4, over 5 µM; on hNav1.3, over 5 µM; at hNav1.5, over 5 µM.
`CSCC[C@@H]1NC(=O)[C@H](Cc2c[nH]c3ccccc23)NC(=O)[C@H](CCCCN)NC(=O)[C@H](CCC(N)=O)NC(=O)[C@@H](NC(=O)[C@@H](N)Cc2ccc(O)cc2)CSSC[C@@H]2NC(=O)[C@@H]3CSSC[C@@H](C(=O)N[C@@H](CCCNC(=N)N)C(=O)N[C@@H](CCCCN)C(=O)N[C@@H](Cc4ccc(O)cc4)C(=O)N[C@@H](CCC(=O)O)C(N)=O)NC(=O)[C@H](Cc4c[nH]c5ccccc45)NC(=O)[C@H](CC(C)C)NC(=O)[C@H](CCCCN)NC(=O)[C@H](CSSC[C@H](NC(=O)[C@H]([C@@H](C)O)NC(=O)[C@H](Cc4c[nH]c5ccccc45)NC1=O)C(=O)N[C@@H](CC(=O)O)C(=O)N[C@@H](CO)C(=O)N[C@@H](CCCCN)C(=O)N[C@@H](CCCNC(=N)N)C(=O)N[C@@H](C)C(=O)N3)NC(=O)[C@H](CCC(=O)O)NC(=O)[C@H](CC(C)C)NC(=O)CNC(=O)[C@H](CCC(=O)O)NC2=O` [compound 245]: the IC50 at hNav1.7 is 4.7 µM; on hNav1.4 it was over 5 µM; on hNav1.3, over 5 µM; on hNav1.5, over 5 µM.
Regarding `CCCC[C@@H]1NC(=O)[C@H](Cc2c[nH]c3ccccc23)NC(=O)[C@H](CCCCN)NC(=O)[C@H](CCC(N)=O)NC(=O)[C@@H](NC(=O)[C@@H](N)Cc2ccc(O)cc2)CSSC[C@@H]2NC(=O)[C@@H]3CSSC[C@@H](C(=O)N[C@@H](CCCNC(=N)N)C(=O)N[C@@H](CCCCN)C(=O)N[C@H](C(=O)N[C@H](C(N)=O)[C@@H](C)CC)[C@@H](C)CC)NC(=O)[C@H](Cc4c[nH]c5ccccc45)NC(=O)[C@H](CC(C)C)NC(=O)[C@H](CCCCN)NC(=O)[C@H](CSSC[C@H](NC(=O)[C@H](Cc4cn(CCCOCCOCCOCCOCCOCCOCCOCCOCCOCCOCCN)nn4)NC(=O)[C@H](Cc4c[nH]c5ccccc45)NC1=O)C(=O)N[C@@H](CC(=O)O)C(=O)N[C@@H](CO)C(=O)N[C@@H](CCCCN)C(=O)N[C@@H](CCCNC(=N)N)C(=O)N[C@@H](C)C(=O)N3)NC(=O)[C@H](CCCNC(=N)N)NC(=O)[C@H](CC(C)C)NC(=O)CNC(=O)[C@H](CCC(=O)O)NC2=O` [compound 254], the IC50 at hNav1.7 is 6.4 µM; on hNav1.4, over 7 µM; on hNav1.3, over 7 µM; on hNav1.5 it was over 7 µM.

(Values after patent US9636418B2 (priority 2013, dated 2017).)
